Laboratory results: patent US20110286998A1, “METHODS FOR TREATING AND PREVENTING CANCERS THAT EXPRESS THE HYPOTHALAMIC-PITUITARY-GONADAL AXIS OF HORMONES AND RECEPTORS” (Voyager Pharmaceutical Corporation, priority 2001, published 2011)

Key:
[1] = test system: cancer cell lines; assay type: cell-based
Protocol: Cell growth assays were performed as described below. CaOV3 (ATCC HTB-75) cells were plated in Dulbecco's modified Eagle's medium with 4 mM L-glutamine, 1.5 g/L sodium bicarbonate, 0.1 mM non-essential amino acids, and 10% fetal bovine serum. H358 (ATCC CRL-5807) cells were plated in RPMI 1640 medium with 2 mM L-glutamine adjusted to contain 1.5 g/L sodium bicarbonate, 4.5 g/L glucose, 10 mM HEPES, 1.0 mM sodium pyruvate and 10% fetal bovine serum. H838 (ATCC CRL-5844) cells were plated in RPMI 1640 medium with 1.5 g/L sodium bicarbonate, 4.5 g/L glucose, 10 mM HEPES, 1.0 mM sodium pyruvate, 10 U/ml insulin and 10% fetal bovine serum. […]
For cell growth assays in a 96 well format, different numbers of cells were plated, depending on the cell line (about 2000 cells/well for CaOV3, about 250 cells/well for 786-O, about 500 cells/well for H838 and H358, about 5000 cells/well for T47D and […], about 1000 cells/well for HPAC, ACHN, HT-29, MCF-7 and about 300,000 cells/well for MV4-11). […] The number of cells in each group was measured by incubating cells with WST-8 (2-(2-methoxy-4-nitrophenyl)-3-(4-nitrophenyl)-5-(2,4-disulfophenyl)-2H-tetrazolium, monosodium salt) which produces a water soluble formazan dye that was detected by measuring optical density (at 450 nm) using a μQuant™ Universal Microplate Spectrophotometer (Bio-Tek® Instruments, Inc., Winooski, Vt.).

[2] = both, dog, in vivo, sc, 34 mg
Protocol: FIG. 16 presents results of a pharmacokinetic study in which male and female dogs were either injected intramuscularly with a leuprolide depot formulation or implanted subcutaneously with a leuprolide implant formulation.
Six dogs of each sex were dosed with 60 mg of Lupron Depot® by injection (males—X, females—▴) on day 1. Six dogs of each sex were dosed with single subcutaneous doses (males—▪, females—♦) of 3 DURIN™-Leuprolide 11.3 mg implants (total dose 34 mg) on day 1 and again on day 64. Serum leuprolide levels were determined and plotted against time out to 200 days.

[3] = test system: pituitary secretion of LH and FSH; conditions: cited from earlier work
[4] = test system: testosterone; conditions: in vivo; cited from earlier work

CCNC(=O)[C@@H]1CCCN1C(=O)[C@H](CCCNC(=N)N)NC(=O)[C@H](CC(C)C)NC(=O)[C@@H](CC(C)C)NC(=O)[C@H](Cc1ccc(O)cc1)NC(=O)[C@H](CO)NC(=O)[C@H](Cc1c[nH]c2ccccc12)NC(=O)[C@H](Cc1c[nH]cn1)NC(=O)[C@@H]1CCC(=O)N1 [leuprolide acetate]
effect on growth of cancer cell lines [1]: slows or inhibits growth in a dose dependent manner | inhibition rates of cancer cell growth ([1]; highest dose of leuprolide used in the studies): 10-40% | sustained serum levels of leuprolide acetate [2]: 5.0 to 8.0 ng/mL | pituitary secretion of LH and FSH ([3]; for several days after initial administration): increase | LH and FSH secretion ([3]; thereafter, pituitary GnRH receptors down-regulated): significant decrease | serum concentrations required for testosterone suppression [4]: less than 1 ng/ml
